Data from US10907159B2, “Methods of treating cancer by inhibition of DNA repair proteins using antisense based therapies” (SARISSA INC., priority 2015, dated 2021).
“Also recorded” adds a separate entry of the source.

How the values were obtained:
A549b cells = assay: Proliferation of A549b cells after OLIGO/siRNA transfection (cell counting); assay type: cell-based, human
Procedure: Cultured cell lines were maintained in minimum essential medium a with nucleosides plus 10% fetal bovine serum and penicillin (50 units/mL)/streptomycin (50 mg/L) (growth medium). Cultures were incubated in a humidified atmosphere of 5% CO2 at 37° C. Cultured cell lines were maintained and cytotoxicity assays conducted as described previously (3). Rapidly proliferating cells were utilized for establishing cultures of experimental cells, which were allowed to plate overnight in 25-cm^2 flasks prior to manipulation. An established cell line of non-small-cell lung carcinoma (NSCLC), A549b, which was propagated by serial dilution from a single cell of an A549 parent cell line, was used for the establishment of antisense activity of oligonucleotides. This cell line proliferates with a mean generation time of approximately 20 hours, and is capable of forming tumours in immunodeficient mice with a take rate of greater than 90%. Therefore, this cell line is a good model system that can be used in both in vitro and in vivo experiments to test the activity of OLIGOs.
OLIGOs were introduced into cells with the use of Lipofectamine 2000 (LFA2K) (Invitrogen, Burlington, Ontario, Canada). OLIGOs were mixed with LFA2K at a ratio of 0.2 μg/ml per 10 nM OLIGO. The mixture was prepared at 11× the final concentration to which cells were exposed, so that 200 μL was added to 2 mL of medium in which cells were plated. As controls, cells were exposed to medium alone (no treatment), LFA2K alone at concentrations equivalent to those used in combination with OLIGOs (in some experiments only the maximum LFA2K concentration was used as a control), or OLIGO having no complementarity with any human mRNA. The OLIGO/LFA2K mixtures were then incubated at room temperature for 20 minutes, according to instructions supplied with the LFA2K, followed by addition of the OLIGOs to the cell medium. The OLIGO/LFA2K mix was then incubated (37° C.) on the cells for 4 hours, after which a second volume of medium was added. Cells were then incubated for 20 hours. Following this incubation, the OLIGO-containing medium was replaced with drug-free medium (i.e. medium without OLIGOs) and the cells were incubated for an additional 4 days. Following the 4-day incubation, the proliferation of the treated cells (fold-increase in cell number) was calculated as a percentage of that of control cells. Cell numbers were enumerated on an electronic particle counter (Beckman Coulter, Mississauga, ON). For the purpose of determining the anti-proliferative effect of antisense OLIGOs, the proliferation of cells treated with antisense OLIGOs was calculated as a percent of that of cells treated with an equivalent concentration of non-complementary control OLIGO (in this case OLIGO 32) mixed with an equivalent amount of LFA2K.
OLIGO-containing medium was removed and replaced with fresh medium. Cells were incubated for 4 days, at which time cell number was counted. Proliferation was calculated as a percent of non-targeting OLIGO-treated controls.
Cells were incubated for 4 days, at which time cell number was counted. Proliferation was calculated as a percent of controls.

[1] = test system: EP156T primary prostate epithelial cells; assay: Veliparib after BR1 pretreatment; assay type: cell-based; conditions: FIG. 37
[2] = test system: HK-2 kidney proximal tubule epithelial cells; assay: Cell proliferation assay, ASO transfection then drug (cell counting); assay type: cell-based, human; conditions: FIG. 52
Procedure: FIG. […] Proliferation was determined by cell counting 96 hours post-transfection (*p<0.05).
Four hours post-transfection, cells were seeded into 6 well dishes in appropriate experimental groups. […] Ninety-six hours post transfection, cells were collected and counted (Coulter Particle Counter). Proliferation was determined based on initial cell density and calculated as a percentage of ASO+vehicle treated cells.

BRCA2 mRNA = assay: RT-qPCR of BRCA2 mRNA in A549 cells after OLIGO transfection; assay type: cell-based, human; conditions: 20 nM OLIGO, 24 hours post-transfection; FIG. 16
Procedure: (§1) Briefly, A549 cells seeded at a density of 2.0×10^5 per flask were transfected with 20 nM of OLIGO specific for each target or control OLIGO using Lipofectamine 2000 as the transfection reagent. Twenty four hours post-transfection mRNA was extracted and reverse transcribed into cDNA. RT-qPCR was performed for target mRNA levels using TaqMan reagents according to established protocols.

[3] = test system: HN-5a and HN-5a/carbo-15a head and neck squamous carcinoma cells; assay: Cisplatin sensitivity after ASO transfection (cell counting, colony forming); assay type: cell-based, human; conditions: FIG. 51
Procedure: HN-5a cells are parental, cisplatin-sensitive human head and neck squamous carcinoma cells, and HN-5a/carbo-10a and HN-5a/carbo-15a cells are cisplatin-resistant lines derived from HN-5a cells (Ferguson et al., Drug Metab. Dispos. 27:1399-1405, 1999). Cells were exposed to cisplatin and effects on proliferation were assessed 72 h after drug treatment. HN-5a cells (b) and HN-5a/carbo-15a cells (c) were transfected with control (black circles) or BRCA2 (white circles) ASO, treated with varying concentrations of cisplatin and then counted 96 h post-transfection. HN-5a cells (d) and […] cells (e) were transfected with control or BRCA2 ASO, treated with different concentrations of cisplatin for 6 h, and then re-plated at a density of 500 cells per well to determine colony forming ability. *Different from cells treated with control ASO using a Student's t-test (p<0.05).

TS mRNA = assay: RT-qPCR of TS mRNA in A549 cells after OLIGO transfection; assay type: cell-based, human; conditions: 20 nM OLIGO, 24 hours post-transfection; FIG. 16
Procedure: as §1

## 5′-guaucuCTTGACGTuccuua-3′ (GUAUCUCTTGACGTUCCUUA; gapmer, lower-case wings modified, type not given here) [BR1]
A549b cells; A549/A549b cells, 4 h transfection, counted after 4 d, vs non-targeting control OLIGO
  anti-proliferative effect as single agent: inhibited proliferation on its own; also recorded: greater inhibition as a single agent; also recorded: inhibit proliferation of human non-small cell lung cancer A549 cells in a concentration-dependent manner
A549b cells; single agent, mixed with 0.2 μg/mL LFA2K, compared with control OLIGO 32, FIG. 1
  inhibit proliferation of A549b cells: over 50%
[1]
  enhancement of veliparib: little or not at all
[2]
  effect on antiproliferative activity of cisplatin: no effect on the antiproliferative activity of cisplatin
BRCA2 mRNA
  effect on BRCA2 mRNA level: reduction in BRCA2 mRNA
[3]
  effect on acquired cisplatin resistance: reverses acquired cisplatin resistance
TS mRNA
  effect on TS mRNA level: no significant effect on TS mRNA
